Test results published in US7514579B2, “Boronic chalcone derivatives and uses thereof” (Johns Hopkins University, priority 2002, dated 2009).

How the values were obtained:
Conditions in all cases: MTT growth inhibition, 96 hours exposure
[1] = tested on: MDA-MB-435 (estrogen independent) human breast cancer cells; assay: MTT survival assay, MDA-MB-435 cells; format: cell-based
Protocol: (§1) The cytotoxicity of the boronic chalcone analogs and carboxylic acid chalcones were evaluated and compared by MTT survival assays of human breast cancer MDA-MB-435, MDA-MB-231, Wt-MCF7, and MCF-10A cells treated at different concentrations of the analogs.
(§2) Human breast cancer MDA-MB-231 (estrogen independent) and wtMCF7 (estrogen dependent) human breast cancer cells were maintained in DMEM medium supplemented with 5% fetal bovine serum, 2 mM glutamine, and 100 units/mL penicillin/streptomycin. MDA-MB-435 (estrogen independent) human breast cancer cells were maintained in IMEM medium supplemented with 5% fetal bovine serum and 2 mM glutamine. Each cell line used has unique growth characteristics spanning the spectrum of tumor invasiveness, differentiation and estrogen dependence. Normal breast epithelial cell lines, MCF-10A and MCF-12A, were maintained in 5% and 10% horse serum in DMEM:Ham's F12 media, respectively, supplemented with 2 mM glutamine, 100 units/mL penicillin/streptomycin, 0.02 μg/mL EGF, 0.01 mg/mL insulin, and 0.1 μg/mL cholera toxin.
(§3) Cells were incubated at 37° C. in a 5% CO2 atmosphere. The MTT colorimetric assay was used to determine growth inhibition (Mosmann, T., J. Immunol. Methods, 1983, 65, 55-63). Cells were plated in 96-well plates and allowed to attach for 24 hours. Chalcone derivatives based on compounds 20 and 21 below were dissolved in DMSO at 10 mM concentrations. Cells were expose in quadruplicate well to chalcone concentrations of 0.5-100 µM for 96 hours. After 96 hours the media was aspirated, and 100 µL of 1 mg/mL MTT solution (Sigma Chemical Co.) diluted in serum free media was added to each well. After 4 hours of incubation, the MTT solution was removed and 200 µL of 1:1 (v/v) solution of DMSO:ethanol was added to each well to dissolve formazan crystals. The absorbance at A540nm was determined on a plate reader. IC50 values were determined from log plots of percent of control vs. concentration. Each compound was assayed twice in quadruplicate. Analogs 3g and 9 have been previously described (Stoll R., et al., supra; Kussie, P. H., et al., supra) and were included for comparative purposes.

[2] = tested on: wtMCF7 (estrogen dependent) human breast cancer cells; assay: MTT survival assay, Wt-MCF7 cells; format: cell-based
Protocol: as §1, §2, §3

[3] = tested on: MCF-10A normal breast epithelial cell line; assay: MTT survival assay, MCF-10A cells; format: cell-based, human
Protocol: as §1, §2, §3

[4] = tested on: MDA-MB-231 (estrogen independent) human breast cancer cells; assay: MTT survival assay, MDA-MB-231 cells; format: cell-based
Protocol: as §1, §2, §3

[5] = tested on: MCF-12A normal breast epithelial cell line; assay: MTT survival assay, MCF-12A cells; format: cell-based, human
Protocol: as §1, §2, §3

| Structure (SMILES) | IC50 [1] [µM] | IC50 [2] [µM] | IC50 [3] [µM] | IC50 [4] [µM] | IC50 [5] [µM] |
| --- | --- | --- | --- | --- | --- |
| O=C(/C=C/c1ccc(Cl)c(Cl)c1)c1ccc(B(O)O)cc1 [Compound 8] | 4 | 5.5 | 18 | 8 | 15 |
| O=C(/C=C/c1ccc(F)c(F)c1)c1ccc(B(O)O)cc1 [Compound 3d] | 8.8 | 7.8 | 18 | 8.8 | 39 |
| O=C(/C=C/c1ccc(F)c(Cl)c1)c1ccc(B(O)O)cc1 [Compound 3c] | 16 | 6 | 25 | 8.5 | 22 |
| O=C(/C=C/c1ccc(Cl)c(Cl)c1)c1ccc(B(O)O)cc1 [Compound 3b] | 3.5 | 5 | 18 | 9.5 | 11 |
| O=C(/C=C/c1ccc(I)cc1)c1ccc(O)cc1 [Compound 6] | 4.5 | 7 | 15 | 8 | 30 |
| O=C(O)COc1ccc(C(=O)/C=C/c2ccc(I)cc2)cc1 [Compound 3f] | 18 | 9 | 44 | 44 | 38 |
| O=C(O)COc1ccc(C(=O)/C=C/c2ccc(Cl)c(Cl)c2)cc1 [Compound 3g, reference compound] | 9 | 13 | 13 | 9 | 15 |
| O=C(O)COc1ccc(C(=O)/C=C/c2ccc(Cl)c(Cl)c2)cc1 [Compound 9, reference compound] | 13 | 15 | 12 | 18 | 28 |
| O=C(/C=C/c1ccc(I)cc1)c1ccc(B(O)O)cc1 [Compound 3a] | 10 | 7 | 75 | 8.8 | 63 |
| O=C(/C=C/c1ccc(F)c(Br)c1)c1ccc(B(O)O)cc1 [Compound 3e] | 8.8 | 8.5 | 17 | 9.5 | 38 |
| O=C(/C=C/c1ccc(I)cc1)c1ccc(OCB(O)O)cc1 [Compound 7] | 18 | 9.5 | 38 | 11 | 100 |
